# Data: US11547681B2, “N-acylethanolamide derivatives and uses thereof” (ELIEM THERAPEUTICS, INC., priority 2016, dated 2023)
# Experiment: in vitro
# Settings: for Measured concentration of analyte PEA, 0 min / Measured concentration of analyte PEA, 10 min / Measured concentration of analyte PEA, 20 min / Measured concentration of analyte PEA, 30 min / Measured concentration of analyte PEA, 60 min / % Remaining of Initial, 0 min / % Remaining of Initial, 10 min / % Remaining of Initial, 20 min / % Remaining of Initial, 30 min / % Remaining of Initial, 60 min / Measured concentration of PEA (analyte) / % Remaining of Initial / Concentration of analyte I-9 / Concentration of analyte PEA / % Remaining of Initial (n = 1): 1 μM; for % Remaining of Initial, 0 min / % Remaining of Initial, 10 min / % Remaining of Initial, 20 min / % Remaining of Initial, 30 min / % Remaining of Initial, 60 min / microsomal CLint at 1 μM / half-life at 1 μM / % Remaining of Initial / % Remaining of Initial (n = 1): microsomes
# Description: The reaction mixture, minus cofactors, was prepared as described below. The test article was added into the reaction mixture at a final concentration of 1 μM. […] An aliquot of the reaction mixture (without cofactor) was equilibrated in a shaking water bath at 37° C. for 3 minutes. The reaction was initiated by the addition of cofactor, and the mixture was incubated in a shaking water bath at 37° C. Aliquots (100 μL) were withdrawn at 0, 10, 20, 30, and 60 minutes. All samples were immediately combined with 400 μL of ice-cold 50/50 acetonitrile/H2O containing 0.1% formic acid and internal standard to terminate the reaction. The samples were then mixed and centrifuged to precipitate proteins. Calibration standards were prepared in matched matrix. All samples and standards were assayed by LC-MS/MS using electrospray ionization for both the dosed prodrug I-9 and the expected drug (PEA). Analytical conditions are outlined in Appendix 4-1. The test article concentration at each time point was compared to the test article concentration at time 0 to determine the percent remaining at each time point. Half-lives were calculated using GraphPad software, fitting to a single-phase exponential decay equation.
# Reaction mixture, minus cofactors, was prepared as described below. Test article was added into the reaction mixture at a final concentration of 1 μM. […] An aliquot of the reaction mixture (without cofactor) was equilibrated in a shaking water bath at 37° C. for 3 minutes. The reaction was initiated by the addition of cofactor, and the mixture was incubated in a shaking water bath at 37° C. Aliquots (100 μL) were withdrawn at 0, 10, 20, 30, and 60 minutes. Test article samples were immediately combined with 300 μL of ice-cold acetonitrile containing 1% formic acid. Control samples were immediately combined with 400 μL of ice-cold 50/50 acetonitrile (ACN)/dH2O containing 0.1% formic acid and internal standard to terminate the reaction. Samples were then mixed and centrifuged to precipitate proteins. Calibration standards were prepared in matched matrix. Samples and standards were assayed by LC-MS/MS using electrospray ionization for both dosed prodrug and expected drug (PEA). Analytical conditions are outlined in Appendix 8-1. Test article concentration at each time point was compared to test article concentration at time 0 to determine the percent remaining at each time point. Half-lives were calculated using GraphPad software, fitting to a single-phase exponential decay equation.
# Reaction mixture, minus cofactors, was prepared as described below. Test article was added into the reaction mixture at a final concentration of 1 μM. […] An aliquot of the reaction mixture (without cofactor) was equilibrated in a shaking water bath at 37° C. for 5 minutes. Reaction was initiated by the addition of cofactor, and the mixture was incubated in a shaking water bath at 37° C. Aliquots (100 μL) were withdrawn at 0, 10, 20, 30, and 60 minutes. Test article samples were immediately combined with 300 μL of ice-cold acetonitrile containing 1% formic acid. Control samples were immediately combined with 400 μL of ice-cold 50/50 acetonitrile (ACN)/dH2O containing 0.1% formic acid and internal standard to terminate the reaction. Samples were then mixed and centrifuged to precipitate proteins. Calibration standards were prepared in matched matrix. Samples and standards were assayed by LC-MS/MS using electrospray ionization for both the dosed prodrug and the expected drug (PEA). Analytical conditions are outlined in Appendix 10-1. Test article concentration at each time point was compared to the test article concentration at time 0 to determine the percent remaining at each time point. Half-lives were calculated using GraphPad software, fitting to a single-phase exponential decay equation.
# Reaction mixture, minus cofactors, was prepared as described below. Test article was added into the reaction mixture at a final concentration of 1 μM.
# [1] = male, Sprague-Dawley, rat, 0 min
# [2] = male, Sprague-Dawley, rat, 10 min
# [3] = male, Sprague-Dawley, rat, 20 min
# [4] = male, Sprague-Dawley, rat, 30 min
# [5] = male, Sprague-Dawley, rat, 60 min
# [6] = male, Sprague-Dawley, rat, 0.5 h
# [7] = male, Sprague-Dawley, rat, Half-life
# [8] = both, human, calculated value in parentheses
# [9] = both, human, Half-life, calculated value in parentheses
# [10] = male, Sprague-Dawley, rat, calculated value in parentheses
# [11] = male, Sprague-Dawley, rat, Half-life, calculated value in parentheses
smiles,measurement,setting,value
CCCCCCCCCCCCCCCC(=O)NCCOC(=O)CCC(=O)OC[C@H]1O[C@@](CO)(O[C@H]2O[C@H](CO)[C@@H](O)[C@H](O)[C@H]2O)[C@@H](O)[C@@H]1O [Compound I-7],"Measured concentration of analyte PEA, 0 min","both, human, 0 min",0.22 µM
same,"Measured concentration of analyte PEA, 10 min","both, human, 10 min",0.39 µM
same,"Measured concentration of analyte PEA, 20 min","both, human, 20 min",0.28 µM
same,"Measured concentration of analyte PEA, 30 min","both, human, 30 min",0.22 µM
same,"Measured concentration of analyte PEA, 60 min","both, human, 60 min",0.080 µM
same,"% Remaining of Initial, 0 min","both, human, 0 h",100%
same,"% Remaining of Initial, 10 min","both, human, 10 min",4.6%
same,"% Remaining of Initial, 20 min","both, human, 20 min",1.3%
same,"% Remaining of Initial, 30 min","both, human, 0.5 h",<1.0%
same,"% Remaining of Initial, 60 min","both, human, 1 h",<1.0%
same,microsomal CLint at 1 μM,"both, human",612 µL/min/mg
same,half-life at 1 μM,"both, human, Half-life",2.3 min
same,"Measured concentration of analyte PEA, 0 min",[1],0.054 µM
same,"Measured concentration of analyte PEA, 10 min",[2],0.14 µM
same,"Measured concentration of analyte PEA, 20 min",[3],0.087 µM
same,"Measured concentration of analyte PEA, 30 min",[4],0.045 µM
same,"Measured concentration of analyte PEA, 60 min",[5],0.0085 µM
same,"% Remaining of Initial, 0 min","male, Sprague-Dawley, rat, 0 h",100%
same,"% Remaining of Initial, 10 min",[2],45%
same,"% Remaining of Initial, 20 min",[3],17%
same,"% Remaining of Initial, 30 min",[6],11%
same,"% Remaining of Initial, 60 min","male, Sprague-Dawley, rat, 1 h",2.1%
same,microsomal CLint at 1 μM,"male, Sprague-Dawley, rat",164 µL/min/mg
same,half-life at 1 μM,[7],8.5 min
CCCCCCCCCCCCCCCC(=O)NCCOC(=O)CCC(=O)OC(CO)CO [Compound I-8],Measured concentration of PEA (analyte),"both, human, 0 min",0.063 µM
same,Measured concentration of PEA (analyte),"both, human, 10 min",0.34 µM
same,Measured concentration of PEA (analyte),"both, human, 20 min",0.25 µM
same,Measured concentration of PEA (analyte),"both, human, 30 min",0.21 µM
same,Measured concentration of PEA (analyte),"both, human, 60 min",0.070 µM
same,% Remaining of Initial,"both, human, 0 h",100%
same,% Remaining of Initial,"both, human, 10 min",2.8%
same,% Remaining of Initial,"both, human, 20 min",<1.0%
same,% Remaining of Initial,"both, human, 0.5 h",<1.0%
same,% Remaining of Initial,"both, human, 1 h",<1.0%
same,microsomal CLint at 1 μM,"both, human",> 139 µL/min/mg
same,microsomal CLint at 1 μM,[8],712 µL/min/mg
same,half-life at 1 μM,"both, human, Half-life",< 10 min
same,half-life at 1 μM,[9],2 min
same,Measured concentration of PEA (analyte),[1],0.033 µM
same,Measured concentration of PEA (analyte),[2],0.041 µM
same,Measured concentration of PEA (analyte),[3],0.019 µM
same,Measured concentration of PEA (analyte),[4],0 µM
same,Measured concentration of PEA (analyte),[5],0 µM
same,% Remaining of Initial,"male, Sprague-Dawley, rat, 0 h",100%
same,% Remaining of Initial,[2],4.3%
same,% Remaining of Initial,[3],1.2%
same,% Remaining of Initial,[6],<1.0%
same,% Remaining of Initial,"male, Sprague-Dawley, rat, 1 h",<1.0%
same,microsomal CLint at 1 μM,"male, Sprague-Dawley, rat",> 139 µL/min/mg
same,microsomal CLint at 1 μM,[10],624 µL/min/mg
same,half-life at 1 μM,[7],< 10 min
same,half-life at 1 μM,[11],2.2 min
CCCCCCCCCCCCCCCC(=O)NCCOC(=O)CCC(=O)OCC(O)CO (centres unmarked) [Compound I-9],Concentration of analyte I-9,"both, human, 0 min",180 nM
same,Concentration of analyte PEA,"both, human, 0 min",830 nM
same,"Measured concentration of analyte PEA, 0 min","both, human, 0 min",0.47 µM
same,Concentration of analyte I-9,"both, human, 10 min",2.1 nM
same,Concentration of analyte PEA,"both, human, 10 min",600 nM
same,"Measured concentration of analyte PEA, 10 min","both, human, 10 min",0.39 µM
same,Concentration of analyte I-9,"both, human, 20 min",0 nM
same,Concentration of analyte PEA,"both, human, 20 min",510 nM
same,"Measured concentration of analyte PEA, 20 min","both, human, 20 min",0.22 µM
same,Concentration of analyte I-9,"both, human, 30 min",0 nM
same,Concentration of analyte PEA,"both, human, 30 min",410 nM
same,"Measured concentration of analyte PEA, 30 min","both, human, 30 min",0.16 µM
same,Concentration of analyte I-9,"both, human, 60 min",0 nM
same,Concentration of analyte PEA,"both, human, 60 min",200 nM
same,"Measured concentration of analyte PEA, 60 min","both, human, 60 min",0.058 µM
same,% Remaining of Initial (n = 1),"both, human, 0 h",100%
same,"% Remaining of Initial, 0 min","both, human, 0 h",100%
same,% Remaining of Initial (n = 1),"both, human, 10 min",1.2%
same,"% Remaining of Initial, 10 min","both, human, 10 min",<1.0%
same,% Remaining of Initial (n = 1),"both, human, 20 min",<1.0%
same,"% Remaining of Initial, 20 min","both, human, 20 min",<1.0%
same,% Remaining of Initial (n = 1),"both, human, 0.5 h",<1.0%
same,"% Remaining of Initial, 30 min","both, human, 0.5 h",<1.0%
same,% Remaining of Initial (n = 1),"both, human, 1 h",<1.0%
same,"% Remaining of Initial, 60 min","both, human, 1 h",<1.0%
same,microsomal CLint at 1 μM,[8],888 µL/min/mg
same,half-life at 1 μM,"both, human, Half-Life",< 10 min
same,half-life at 1 μM,"both, human, Half-life",< 1 min
same,half-life at 1 μM,[9],1.6 min
same,Concentration of analyte I-9,[1],210 nM
same,Concentration of analyte PEA,[1],350 nM
same,"Measured concentration of analyte PEA, 0 min",[1],0.22 µM
same,Concentration of analyte I-9,[2],8.5 nM
same,Concentration of analyte PEA,[2],160 nM
same,"Measured concentration of analyte PEA, 10 min",[2],0.066 µM
same,Concentration of analyte I-9,[3],0 nM
same,Concentration of analyte PEA,[3],76 nM
same,"Measured concentration of analyte PEA, 20 min",[3],0.017 µM
same,Concentration of analyte I-9,[4],0 nM
same,Concentration of analyte PEA,[4],27 nM
same,"Measured concentration of analyte PEA, 30 min",[4],0 µM
same,Concentration of analyte I-9,[5],0 nM
same,Concentration of analyte PEA,[5],3 nM
same,"Measured concentration of analyte PEA, 60 min",[5],0 µM
same,% Remaining of Initial (n = 1),"male, Sprague-Dawley, rat, 0 h",100%
same,"% Remaining of Initial, 0 min","male, Sprague-Dawley, rat, 0 h",100%
same,% Remaining of Initial (n = 1),[2],4.0%
same,"% Remaining of Initial, 10 min",[2],1.9%
same,% Remaining of Initial (n = 1),[3],<1.0%
same,"% Remaining of Initial, 20 min",[3],<1.0%
same,% Remaining of Initial (n = 1),[6],<1.0%
same,"% Remaining of Initial, 30 min",[6],<1.0%
same,% Remaining of Initial (n = 1),"male, Sprague-Dawley, rat, 1 h",<1.0%
same,"% Remaining of Initial, 60 min","male, Sprague-Dawley, rat, 1 h",<1.0%
same,microsomal CLint at 1 μM,[10],642 µL/min/mg
same,half-life at 1 μM,"male, Sprague-Dawley, rat, Half-Life",< 10 min
same,half-life at 1 μM,[7],1.8 min
same,half-life at 1 μM,[11],2.2 min
